Laboratory results as given in ChEMBL document CHEMBL1151056, “The preparation and utilization of paraherquamide-2-O-methyl imidate in the synthesis of 14-O-substituted paraherquamide derivatives” (Bioorg Med Chem Lett, 1992).
≈ marks a conversion by molar mass, not a printed value. Blank lines part the entries; values can stand above or below the compound they belong to.

Legend:
[1] = tested on: Caenorhabditis elegans; experiment: In vitro inhibition against Caenorhabditis elegans motility for anthelmintic activity was measured; assay type: functional, organism-based
[2] = tested on: Ovis aries; experiment: Evaluated for the anthelmintic activity against Ostertagia circumcincta in sheep at dose of 2 mg/kg; value ranges from 91-100%; assay type: functional
[3] = tested on: Ovis aries; experiment: Evaluated for the anthelmintic activity against Oesophagostomum columbianum in sheep at dose of 2 mg/kg; value ranges from 51-75%; assay type: functional
[4] = tested on: Ovis aries; experiment: Evaluated for the anthelmintic activity against Oesophagostomum columbianum in sheep at dose of 0.5 mg/kg; assay type: functional
[5] = tested on: Ovis aries; experiment: Evaluated for the anthelmintic activity against Cooperia species in sheep at dose of 0.5 mg/kg; value ranges from 91-100%; assay type: functional
[6] = tested on: Ovis aries; experiment: Evaluated for the anthelmintic activity against Trichostrongylus axei in sheep at dose of 2 mg/kg; value ranges from 91-100%; assay type: functional
[7] = tested on: Ovis aries; experiment: Evaluated for the anthelmintic activity against Haemonchus contortus in sheep at dose of 2 mg/kg; value ranges from 91-100%; assay type: functional
[8] = tested on: Ovis aries; experiment: Evaluated for the anthelmintic activity against Trichostrongylus colubriformis in sheep at dose of 0.5 mg/kg; value ranges from 91-100%; assay type: functional
[9] = tested on: Ovis aries; experiment: Evaluated for the anthelmintic activity against Cooperia species in sheep at dose of 2 mg/kg; value ranges from 91-100%; assay type: functional
[10] = tested on: Ovis aries; experiment: Evaluated for the anthelmintic activity against Trichostrongylus colubriformis in sheep at dose of 2 mg/kg; value ranges from 91-100%; assay type: functional
[11] = tested on: Ovis aries; experiment: Evaluated for the anthelmintic activity against Ostertagia circumcincta in sheep at dose of 0.5 mg/kg; value ranges from 91-100%; assay type: functional
[12] = tested on: Ovis aries; experiment: Evaluated for the anthelmintic activity against Haemonchus contortus in sheep at dose of 0.5 mg/kg; value ranges from 91-100%; assay type: functional
[13] = tested on: Ovis aries; experiment: Evaluated for the anthelmintic activity against Trichostrongylus axei in sheep at dose of 0.5 mg/kg; value ranges from 91-100%; assay type: functional

Compound: CNC(=O)N(C)C(=O)O[C@]1(C)CCN2CC34CC5(C(=O)Nc6c5ccc5c6OC=CC(C)(C)O5)C(C)(C)C3CC21C(=O)N4C (stereo partly specified)
IC50 [1]: 60 mg/L (≈ 98.7 µM)

Compound: C#CCO[C@]1(C)CCN2CC34CC5(C(=O)Nc6c5ccc5c6OC=CC(C)(C)O5)C(C)(C)C3CC21C(=O)N4C (stereo partly specified)
IC50 [1]: 7.5 mg/L (≈ 14.1 µM)

Compound: CCO[C@]1(C)CCN2CC34CC5(C(=O)Nc6c5ccc5c6OC=CC(C)(C)O5)C(C)(C)C3CC21C(=O)N4C (stereo partly specified)
IC50 [1]: 2 mg/L (≈ 3.83 µM)

Compound: COCCOCO[C@]1(C)CCN2CC34CC5(C(=O)Nc6c5ccc5c6OC=CC(C)(C)O5)C(C)(C)C3CC21C(=O)N4C (stereo partly specified)
IC50 [1]: 20 mg/L (≈ 34.4 µM)

Compound: CN1C(=O)C23CC4C1(CN2CC[C@@]3(C)OCc1ccccc1)CC1(C(=O)Nc2c1ccc1c2OC=CC(C)(C)O1)C4(C)C (stereo partly specified)
IC50 [1]: 65 mg/L (≈ 111 µM)

Compound: CN1C(=O)C23CC4C1(CN2CC[C@@]3(C)O[Si](C)(C)C)CC1(C(=O)Nc2c1ccc1c2OC=CC(C)(C)O1)C4(C)C (stereo partly specified)
IC50 [1]: 3 mg/L (≈ 5.3 µM)

The next lines start with results.

IC50 [1]: 70 mg/L (≈ 138 µM)
Compound: CO[C@]1(C)CCN2CC34CC5(C(=O)Nc6c5ccc5c6OC=CC(C)(C)O5)C(C)(C)C3CC21C(=O)N4C (stereo partly specified)

IC50 [1]: 5 mg/L (≈ 9.1 µM)
Compound: CCCCO[C@]1(C)CCN2CC34CC5(C(=O)Nc6c5ccc5c6OC=CC(C)(C)O5)C(C)(C)C3CC21C(=O)N4C (stereo partly specified)

IC50 [1]: 15 mg/L (≈ 28.1 µM)
Compound: C=CCO[C@]1(C)CCN2CC34CC5(C(=O)Nc6c5ccc5c6OC=CC(C)(C)O5)C(C)(C)C3CC21C(=O)N4C (stereo partly specified)
Reduction [2]: 91%
Reduction [3]: 51%
Reduction [4]: <50%
Reduction [5]: 91%
Reduction [6]: 91%
Reduction [7]: 91%
Reduction [8]: 91%
Reduction [9]: 91%
Reduction [10]: 91%
Reduction [11]: 91%
Reduction [12]: 91%
Reduction [13]: 91%
